Data set [1] in a line: PK protocol, intravenous administration. The format is in vivo, male Sprague Dawley rats. Particulars: male, Sprague Dawley, plasma, rat; for Vd: read-out: Vdss. The protocol:
(§1) Pharmacokinetic parameters were determined in male Sprague Dawley rats (Charles River, UK, 250-350 g; or Vital River Laboratory Animal Technology Co Ltd, Beijing, China, 7-9 weeks old). Animals were individually housed during the study and maintained under a 12 h light/dark cycle. Animals had free access to food and water.
(§2) For intravenous administration, compounds were formulated as a solution in water or DMSO:PBS [10:90] in 2 mL/kg dosing volume and administered via tail vein. For oral administration, compounds were formulated as a solution in DMSO:water [10:90] in 5 mL/kg dosing volume and administered orally.
(§3) Serial blood samples (about 120-300 μL) were taken from each animal at each of 8 time-points post dose (0.083, 0.25, 0.5, 1, 2, 4, 8 and 24 h) or at each of 12 time-points post dose (0.03, 0.1, 0.17, 0.25, 0.5, 1, 2, 4, 6, 8, 12 and 24 h) or pre-dose and at each of 9 time-points post dose (0.25, 0.5, 1, 2, 4, 6, 8, 12 and 24 h). Samples were held on ice for no longer than 30 minutes before centrifugation (10,000 rpm (8,385 g) for 3 minutes; or 5,696 rpm (3,000 g) for 15 minutes) for plasma generation. Plasma was frozen on dry ice prior to bioanalysis. PK parameters were generated from LC-MS/MS data using Dotmatics or Phoenix WinNonlin 6.3 software.

For data set [2], the target named is T1, NLRP3 (Homo sapiens, UniProt Q96P20). The data set is described as follows: THP-1 cells pyroptosis assay (LPS + nigericin, resazurin readout; THP IC50). It counts as cell-based. Also on record: Seed THP-1 cells (25,000 cells/well) containing 1.0 μg/ml LPS in 40 μl of RPMI medium; host or cells: THP-1 cells. The method, boiled down:
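Human THP-1 cells, 25,000/well in serum-free RPMI with 1 μg/ml LPS, treated 3 hrs at 37° C with compound (8-point half-log, 10 μM top, 0.1% DMSO), then 5 μM nigericin 1 hr. Viability by 100 μM resazurin fluorescence after 1-2 hrs; IC50 by 4-parameter fit.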
On the technique in general: Resazurin is reduced to fluorescent resorufin, in cell work by metabolically active cells.

The target of data set [3] is T1, NLRP3. As to the kind of experiment: Human whole blood IL1β release assay (LPS + nigericin, AlphaLisa IL-1β; HWB IC50). The format is cell-based. Also on record: Human whole blood in Li-heparin tubes was obtained from healthy donors from a volunteer donor panel; from tissue; host or cells: human whole blood from healthy donors. The settings on record: IL-1β release. Summed up:
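Donor Li-heparin whole blood primed with 1 μg/ml LPS, given compound (8-point half-log series, 10 μM top; DMSO 0.1% final) for 3 h at 37 °C, then nigericin 10 μM final for 1 h. Supernatant IL-1β measured by AlphaLisa; IC50 from 4-parameter variable-slope fit.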
A general note: In Alpha technology, singlet oxygen from a donor bead excites a nearby acceptor bead.

Data set [4] in a line: PK protocol, oral administration. The format is in vivo. The settings on record: rat, male Sprague Dawley rats, 3 mg/kg, solution in DMSO:water [10:90], plasma. The procedure: as §1, §2, §3

Each structure is given as a SMILES string. Where a name gives a salt, the structure may show the parent alone. Read-outs that look alike come from different tables or passages of the source.

T1 sequence (Q96P20 whole entry): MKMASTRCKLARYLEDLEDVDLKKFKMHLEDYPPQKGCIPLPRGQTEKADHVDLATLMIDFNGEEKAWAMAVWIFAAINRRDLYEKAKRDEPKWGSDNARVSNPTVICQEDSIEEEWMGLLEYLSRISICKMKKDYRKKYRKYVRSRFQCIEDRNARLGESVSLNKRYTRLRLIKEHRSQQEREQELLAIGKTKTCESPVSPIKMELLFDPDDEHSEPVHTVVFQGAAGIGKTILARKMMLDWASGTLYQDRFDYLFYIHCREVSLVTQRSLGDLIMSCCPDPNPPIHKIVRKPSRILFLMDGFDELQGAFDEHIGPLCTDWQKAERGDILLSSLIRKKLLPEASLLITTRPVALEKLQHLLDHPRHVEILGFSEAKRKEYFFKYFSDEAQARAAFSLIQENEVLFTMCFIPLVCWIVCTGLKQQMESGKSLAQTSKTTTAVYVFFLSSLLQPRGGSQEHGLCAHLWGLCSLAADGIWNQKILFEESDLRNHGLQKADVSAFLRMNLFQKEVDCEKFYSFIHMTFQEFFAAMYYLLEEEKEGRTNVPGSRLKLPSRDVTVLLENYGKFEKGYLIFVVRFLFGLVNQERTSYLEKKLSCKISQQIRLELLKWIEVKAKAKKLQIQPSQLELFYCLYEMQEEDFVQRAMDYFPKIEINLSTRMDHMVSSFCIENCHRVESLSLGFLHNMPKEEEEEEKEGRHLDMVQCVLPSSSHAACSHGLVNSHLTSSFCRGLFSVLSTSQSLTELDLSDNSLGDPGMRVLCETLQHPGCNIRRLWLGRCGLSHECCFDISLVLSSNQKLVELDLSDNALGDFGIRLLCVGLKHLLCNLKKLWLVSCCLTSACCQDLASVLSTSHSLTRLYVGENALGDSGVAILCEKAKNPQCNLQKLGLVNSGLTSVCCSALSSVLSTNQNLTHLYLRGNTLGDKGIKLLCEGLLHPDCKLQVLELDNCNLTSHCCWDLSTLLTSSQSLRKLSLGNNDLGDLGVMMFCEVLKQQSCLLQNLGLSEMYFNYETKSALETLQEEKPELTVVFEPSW

In the case of `COc1cc(-c2cc(F)c3c(c2NC(=O)NS(=O)(=O)c2ccn(C(C)C)n2)CCC3)ccn1` [Example 55, N-((7-Fluoro-5-(2-methoxypyridin-4-yl)-2,3-dihydro-1H-inden-4-yl)carbamoyl)-1-isopropyl-1H-pyrazole-3-sulfonamide], in data set [1] (dose 1 mg/kg), the AUC (usually the area under the concentration-time curve, a measure of exposure) was found to be 1860 ng·h/mL; the clearance (usually a measure of how efficiently the substance is removed, as volume per time) stood at 9.8 mL/min/kg; the half-life (commonly how long it takes for the measured level to halve) is 6.9 h; the Vd worked out at 3.25 L/kg. Moreover, the IC50 (commonly the concentration that gives 50% inhibition) on NLRP3 [2] is ≤ 500 nM. Moreover, the IC50 on NLRP3 [3] is ≤ 1000 nM.
For `CC(C)c1cc(F)cc(-c2cccnc2)c1NC(=O)NS(=O)(=O)c1ccn(C[C@@H](C)O)n1` [Example 60, (R)-N-((4-Fluoro-2-isopropyl-6-(pyridin-3-yl)phenyl)carbamoyl)-1-(2-hydroxypropyl)-1H-pyrazole-3-sulfonamide], in data set [1] (dose 1 mg/kg), the area under the curve (AUC) stood at 300 ng·h/mL, the clearance amounted to 56.3 mL/min/kg, the half-life is 1 h and the Vd turned out to be 1.22 L/kg. Further, the IC50 on NLRP3 [2] was ≤ 500 nM. Besides, the IC50 at NLRP3 [3] is ≤ 500 nM.
Consider `COc1cc(-c2ccc3c(c2NC(=O)NS(=O)(=O)c2ccn(CCN(C)C)n2)CCC3)ccn1` [Example 61, 1-(2-(Dimethylamino)ethyl)-N-((5-(2-methoxypyridin-4-yl)-2,3-dihydro-1H-inden-4-yl)carbamoyl)-1H-pyrazole-3-sulfonamide], for which, in data set [1] (dose 1.69 mg/kg), the AUC turned out to be 1140 ng·h/mL, the clearance stood at 24.6 mL/min/kg, the half-life was 1.2 h and the Vd is 0.6 L/kg. For the same compound, the IC50 at NLRP3 [2] is ≤ 500 nM. In addition, at NLRP3 [3], the IC50 is ≤ 500 nM.
Turning to `CCn1nc(S(=O)(=O)NC(=O)Nc2c(-c3ccnc(OC)c3)ccc3c2CCC3)cc1CN(C)C` [Example 64, 5-((Dimethylamino)methyl)-1-ethyl-N-((5-(2-methoxypyridin-4-yl)-2,3-dihydro-1H-inden-4-yl)carbamoyl)-1H-pyrazole-3-sulfonamide], in data set [1] (dose 1.7 mg/kg), the AUC came out at 2710 ng·h/mL, the clearance worked out at 10.5 mL/min/kg, the half-life is 3.8 h and the Vd turned out to be 1.23 L/kg. At NLRP3 [2], the IC50 was ≤ 500 nM. Moreover, on NLRP3 [3], the IC50 is ≤ 500 nM.
`COc1cc(-c2ccc3c(c2NC(=O)NS(=O)(=O)c2ccn(C(C)(C)CN(C)C)n2)CCC3)ccn1` [Example 69, 1-(1-(Dimethylamino)-2-methylpropan-2-yl)-N-((5-(2-methoxypyridin-4-yl)-2,3-dihydro-1H-inden-4-yl)carbamoyl)-1H-pyrazole-3-sulfonamide]: in data set [1] (dose 1 mg/kg), the AUC is 896 ng·h/mL, the clearance was found to be 19 mL/min/kg, the half-life was 5.8 h and the Vd was found to be 0.78 L/kg. Moreover, the IC50 on NLRP3 [2] was ≤ 500 nM. In data set [4], the AUC was found to be 504 ng·h/mL; the CL/F – broadly, the apparent clearance, not corrected for the fraction that reaches the circulation – turned out to be 112 mL/min/kg; the highest level (Cmax) was 113 ng/mL; the Tmax (commonly the time from dosing to the highest level) came to 0.5 h. For the same compound, in data set [4], the half-life is 5 h and the bioavailability (usually dose-corrected exposure relative to a reference, in per cent) turned out to be 19%. In addition, on NLRP3 [3], the IC50 was ≤ 500 nM.
For the compound `COc1cc(-c2ccc3c(c2NC(=O)NS(=O)(=O)N(C)C2CCN(C)C2)CCC3)ccn1` (stereo not drawn) [Example 122, 3-(N-Methyl-N-(1-methylpyrrolidin-3-yl)sulfamoyl)-1-(5-(2-methoxypyridin-4-yl)-2,3-dihydro-1H-inden-4-yl)urea], in data set [1] (dose 1 mg/kg), the AUC is 1320 ng·h/mL, the clearance was found to be 12.6 mL/min/kg, the half-life was 11.1 h and the Vd came out at 8.69 L/kg. Besides, the IC50 on NLRP3 [2] was ≤ 500 nM. Besides, at NLRP3 [3], the IC50 was ≤ 500 nM.
Take `CC(C)n1ccc(S(=O)(=O)NC(=O)Nc2c(-c3ccncc3)cc(F)c3c2CCC3)n1` [Example 205, N-((7-Fluoro-5-(pyridin-4-yl)-2,3-dihydro-1H-inden-4-yl)carbamoyl)-1-isopropyl-1H-pyrazole-3-sulfonamide]: in data set [1] (dose 1 mg/kg), the AUC was found to be 4870 ng·h/mL, the clearance came to 3.4 mL/min/kg, the half-life was 2.6 h and the Vd came to 0.57 L/kg. Moreover, the IC50 on NLRP3 [2] is ≤ 500 nM. The IC50 on NLRP3 [3] was ≤ 500 nM.
Turning to `COc1cc(-c2ccc3c(c2NC(=O)NS(=O)(=O)c2ccn(C4CC4)n2)CCC3)ccn1` [Example 221, 1-Cyclopropyl-N-((5-(2-methoxypyridin-4-yl)-2,3-dihydro-1H-inden-4-yl)carbamoyl)-1H-pyrazole-3-sulfonamide, sodium salt], in data set [1] (dose 1 mg/kg), the AUC stood at 65400 ng·h/mL, the clearance came to 0.39 mL/min/kg, the half-life is 15 h and the Vd is 0.36 L/kg. In addition, on NLRP3 [2], the IC50 is ≤ 500 nM. In addition, in data set [4], the AUC is 136000 ng·h/mL; the CL/F was 0.48 mL/min/kg; the Cmax (as a rule, the maximum level reached in the sampled fluid or tissue) turned out to be 7220 ng/mL; the Tmax was 0.75 h. In addition, in data set [4], the half-life is 12 h and the bioavailability was determined as 83%. The IC50 on NLRP3 [3] was ≤ 500 nM.
Take `CC(C)n1ccc(S(=O)(=O)NC(=O)Nc2c(-c3ccnnc3)ccc3c2CCC3)n1` [Example 223, 1-Isopropyl-N-((5-(Pyridazin-4-yl)-2,3-dihydro-1H-inden-4-yl)carbamoyl)-1H-pyrazole-3-sulfonamide, sodium salt]: in data set [1] (dose 1 mg/kg), the AUC was 1740 ng·h/mL, the clearance was found to be 9.6 mL/min/kg, the half-life is 0.9 h and the Vd came to 0.31 L/kg. Moreover, the IC50 on NLRP3 [2] was ≤ 500 nM. Besides, the concentration for half-maximal inhibition (IC50) on NLRP3 [3] is ≤ 500 nM.
As to `COc1cc(-c2ccc3c(c2NC(=O)NS(=O)(=O)c2ccn(C(C)C)n2)CCO3)ccn1` [Example 224, 1-Isopropyl-N-((5-(2-methoxypyridin-4-yl)-2,3-dihydrobenzofuran-4-yl)carbamoyl)-1H-pyrazole-3-sulfonamide, sodium salt], in data set [1] (dose 1 mg/kg), the AUC was determined as 6480 ng·h/mL, the clearance was 2.6 mL/min/kg, the half-life was 3.2 h and the Vd was determined as 0.47 L/kg. Also, on NLRP3 [2], the IC50 is ≤ 500 nM. Also, the IC50 on NLRP3 [3] was ≤ 500 nM.
With `CC(C)n1cc(S(=O)(=O)NC(=O)Nc2c(-c3ccnc(C#N)c3)ccc3c2CCC3)nn1` [Example 230, N-((5-(2-Cyanopyridin-4-yl)-2,3-dihydro-1H-inden-4-yl)carbamoyl)-1-isopropyl-1H-1,2,3-triazole-4-sulfonamide, sodium salt], in data set [1] (dose 1 mg/kg), the AUC was 1950 ng·h/mL, the clearance came out at 8.5 mL/min/kg, the half-life was 1.3 h and the Vd stood at 0.24 L/kg. For the same compound, on NLRP3 [2], the IC50 was ≤ 500 nM. The IC50 at NLRP3 [3] was ≤ 500 nM.
`COc1cc(-c2ccc3c(c2NC(=O)NS(=O)(=O)c2ccc(CN(C)C)cc2)CCC3)ccn1` [Example 251, 4-((Dimethylamino)methyl)-N-((5-(2-methoxypyridin-4-yl)-2,3-dihydro-1H-inden-4-yl)carbamoyl)benzenesulfonamide, sodium salt]: in data set [1] (dose 1 mg/kg), the AUC was 1260 ng·h/mL, the clearance was 13.3 mL/min/kg, the half-life was 2.9 h and the Vd stood at 2.12 L/kg. Further, the 50% inhibitory concentration (IC50) on NLRP3 [2] is ≤ 500 nM. Further, the IC50 at NLRP3 [3] was ≤ 500 nM.

Source of the values: patent publication US20200361895A1, “NOVEL SULFONAMIDE CARBOXAMIDE COMPOUNDS” (Inflazome Limited, priority 2017, published 2020).
